Data from US20230348454A1, “COMPOUNDS AS MODULATORS OF BIS-PHOSPHOGLYCERATE MUTASE FOR THE TREATMENT OF SICKLE CELL DISEASE” (Genzyme Corporation, priority 2020, published 2023).

Biological target: T1, hBPGM (Homo sapiens, UniProt P07738)
T1 sequence (P07738 1-259): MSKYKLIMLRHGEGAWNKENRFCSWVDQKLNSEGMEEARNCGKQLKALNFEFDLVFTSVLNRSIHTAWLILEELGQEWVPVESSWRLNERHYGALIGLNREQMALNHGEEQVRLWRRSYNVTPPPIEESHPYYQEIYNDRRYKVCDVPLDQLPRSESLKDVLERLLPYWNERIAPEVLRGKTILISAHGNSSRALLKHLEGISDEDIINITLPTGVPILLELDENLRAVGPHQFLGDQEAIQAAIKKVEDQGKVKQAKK
Experiment: BPGM synthase assay
Format: biochemical
Conditions: Table 6; read-out: huBPGM: synthase Enzyme IC50
Procedure: The following materials were used in this assay: deionized water; Bisphosphoglycerate mutase (BPGM; Standard Buffer: 50 mM Tris, 0.01% Tween 20, pH 7.4); BPGM Reaction Buffer (50 mM Tris, 0.01% Tween 20, 3.23 mM KH2PO4, pH 7.4); dithiothreitol (DTT; Stock solution: 100 mM in Standard Buffer); 384-Well Black Assay Plate (Corning, P/N 3575); DMSO; BPGM Stock Solution (500 nM in BPGM Standard Buffer); Glyceraldehyde 3-phosphate dehydrogenase (GAPDH; Stock Solution: 40 U/mL in 20 mM Tris-HCL Buffer with 20% Glycerol, 1 mM EDTA, 1 mM DTT); Glyceraldehyde 3-phosphate (GAP; Stock Solution: 20 mM in BPGM Standard Buffer); 3-PG Stock Solution (500 μM in BPGM Standard Buffer); Nicotinamide adenine dinucleotide (NAD; Stock Solution: 50 mM in BPGM Standard Buffer); Koningic Acid (1 mM Stock in DMSO); Resazurin Stock Solution (10 mM in DMSO); Diaphorase Stock Solution (40 U/mL in BPGM Standard Buffer); DTT Reaction Buffer (1 mM DTT in BPGM Reaction Buffer); Enzyme Solution (5 nM BPGM, 0.4 U/mL GAPDH in DTT Reaction Buffer); GAPDH Solution (0.4 U/mL GAPDH in DTT Reaction Buffer); Substrate Solution (2 mM NAD, 20 μM 3PG, 800 μM GAP in DTT Reaction Buffer); and Resazurin Solution (5 U/mL Diaphorase, 500 μM Resazurin in BPGM Standard Buffer).
To the assay plate was added Enzyme Solution (20 uL) to columns 2-22 and 24 of the assay plate. To columns 1 and 23 was added GAPDH Solution (20 uL). A separate compound plate was prepared at the desired concentrations and all wells were normalized with 5% DMSO. The compound plate was incubated for 30 minutes at RT. Next, the substrate solution (20 μL) was dispensed to all reaction wells and the plate was incubated for 60 minutes at RT. Koningic acid (1 μL) was added and the plate was incubated for 10 minutes at RT. During this time period, the NADH fluorescence was read at ex: 360/em: 460. Next, Resazurin Solution (10 μL) was added to all reaction wells and the plate was incubated for 30 minutes at RT. The resorufin fluorescence was then read at ex:544/em:590.

Row | SMILES | IC50 [nM]
1 | Cc1nc(Cc2ccccn2)sc1-c1cccc(-c2ccc(C(=O)NS(=O)(=O)c3ccccc3)cc2)c1 [Example 211] | 740
2 | Cc1nc(NC(=O)OC(C)(C)C)sc1-c1cccc(-c2cc(F)c3[nH]nnc3c2F)n1 [Example 30] | 200
3 | Cc1nc(COC(=O)N(C)C)sc1-c1ccn(-c2cc(F)c3[nH]nnc3c2F)n1 [Example 46] | 130
4 | Cc1nc(CNC(=O)N(C)C)sc1-c1csc(-c2cc(F)c(O)c(F)c2F)n1 [Example 112] | 650
5 | COCC1CCCN1C(=O)OCc1nc(C)c(-c2cccc(-c3cc(F)c4nn[nH]c4c3F)n2)s1 (stereo not drawn) [Example 40] | 44
6 | Cc1nc(Cc2ccccn2)sc1-c1cccc(-c2ccc(C(=O)NS(C)(=O)=O)cc2)c1 [Example 210] | 7500
7 | Cc1nc(COc2cccnn2)sc1-c1csc(-c2cc(F)c3[nH]nnc3c2F)n1 [Example 38] | 36
8 | Cc1nc(C)c(-c2csc(-c3cc(F)c4[nH]nnc4c3F)n2)s1 [Example 86] | 140
9 | Cc1nc(COC(C)C(=O)N(C)C)sc1-c1csc(-c2cc(F)c3[nH]nnc3c2F)n1 (stereo not drawn) [Example 50] | 74
10 | Cc1nc(CO)sc1-c1csc(-c2cc(F)c(O)c(F)c2F)n1 [Example 116] | 6500
11 | Cc1nc(CNC(=O)C(C)(C)C)sc1-c1ccnc(-c2cc(F)c3nn[nH]c3c2F)n1 [Example 223] | 840
12 | Cc1nc(COCC(=O)N2CCC(O)C2)sc1-c1csc(-c2cc(F)c3[nH]nnc3c2F)n1 (stereo not drawn) [Example 78] | 1500
13 | Cc1nc(COCC(=O)C2CCNCC2)sc1-c1csc(-c2cc(F)c(O)c(F)c2F)n1 [Example 94] | > 25000
14 | Cc1nc(C)c(-c2csc(-c3cc(O)c(NS(=O)(=O)c4ccccc4)cc3F)n2)s1 [Example 180] | > 25000
15 | Cc1nc(CNC(=O)N2CCN(C)CC2)sc1-c1csc(-c2cc(F)c(O)c(F)c2F)n1 [Example 108] | 14000
16 | Cc1nc(C)c(-c2ccn(-c3cc(F)c4[nH]nnc4c3F)n2)s1 [Example 42] | 4100
17 | Cc1nc(COCC(=O)N(C)C)sc1-c1nc(-c2cc(F)c3nn[nH]c3c2F)cs1 [Example 48] | 31
18 | Cc1nc(COCC(=O)N2CCC(O)C2)sc1-c1cccc(-c2cc(F)c3nn[nH]c3c2F)n1 (stereo not drawn) [Example 76] | 1100
19 | Cc1nc(COCC(=O)N(C)C)sc1-c1csc(-c2cc(F)c3[nH]nnc3c2F)n1 [Example 49] | 47
20 | Cc1nnc(-c2cccc(-c3cc(F)c4nn[nH]c4c3F)n2)s1 [Example 232] | 2200
21 | Cc1nc(COC(=O)N(C)C)sc1-c1csc(-c2cc(F)c3[nH]nnc3c2)n1 [Example 109] | 160
22 | Cc1nc(CNc2ncc(C(F)(F)F)cn2)sc1-c1csc(-c2cc(F)c(O)c(F)c2F)n1 [Example 84] | > 25000
23 | COC(=O)NCc1nc(C)c(-c2csc(-c3cc(F)c4[nH]nnc4c3F)n2)s1 [Example 67] | 50
24 | Cc1nc(COC(=O)N2CCC(O)C2)sc1-c1csc(-c2cc(F)c(O)c(F)c2F)n1 (stereo not drawn) [Example 79] | 2400
25 | Cc1nc(CNC(=O)C(C)(C)C)sc1-c1cccc(-c2cc(F)c(O)c(F)c2F)c1 [Example 146] | 13000
26 | Cc1nc(COCC(=O)N2CCN(C)CC2)sc1-c1csc(-c2cc(F)c(O)c(F)c2F)n1 [Example 123] | 1600
27 | Cc1ncsc1-c1cccc(-c2cc(F)c3[nH]nnc3c2F)n1 [Example 216] | 5400
28 | Cc1nc(C)c(COc2cc(F)c3nn[nH]c3c2F)s1 [Example 215] | > 25000
29 | Cc1nc(CNC(=O)C2CCN(C)CC2)sc1-c1csc(-c2cc(F)c3[nH]nnc3c2)n1 [Example 182] | 1900

Further lines, results first:

Row | IC50 [nM] | SMILES
30 | 390 | Cc1nc(CN(C)C)sc1-c1cccc(-c2cc(F)c3nn[nH]c3c2F)n1 [Example 52]
31 | 1300 | Cc1nc(COc2cccnn2)sc1-c1nc(-c2cc(F)c(O)c(F)c2F)cs1 [Example 77]
32 | > 25000 | Cc1nc(COc2ncccn2)sc1-c1cccc(-c2ccc(-n3cn[nH]c3=O)cc2)n1 [Example 162]
33 | 1900 | Cc1nc(COc2ncccn2)sc1-c1ccnc(-c2cc(F)c(O)c(C#N)c2)c1 [Example 58]
34 | 75 | Cc1nc(COc2ccccn2)sc1-c1ccnc(-c2cc(F)c3nn[nH]c3c2F)n1 [Example 41]
35 | 1400 | CNCc1nc(C)c(-c2cccc(-c3cc(F)c4nn[nH]c4c3F)n2)s1 [Example 63]
36 | 600 | Cc1nc(COC(=O)N2CCC(O)C2)sc1-c1cccc(-c2cc(F)c(O)c(F)c2F)n1 (stereo not drawn) [Example 35]
37 | 250 | COCc1nc(C)c(-c2cccc(-c3cc(F)c4nn[nH]c4c3F)n2)s1 [Example 34]
38 | 3600 | Cc1nc(COc2ccccn2)sc1-c1csc(-c2cc(F)c3[nH]nnc3c2F)n1 [Example 82]
39 | 8100 | Cc1nc(COc2ncccn2)sc1-c1cccc(-c2ccc3c(c2)C(=O)NC3=O)n1 [Example 132]
40 | 1500 | Cc1nc(CN/C(=N/C#N)N(C)C)sc1-c1cccc(-c2cc(F)c(O)c(F)c2F)n1 [Example 27]
41 | 6700 | Cc1nc(COc2ncccn2)sc1-c1cccc(-c2ccc3[nH]c(=O)[nH]c3c2)n1 [Example 128]
42 | 5200 | Cc1nc(COc2ccccn2)sc1-c1csc(-c2cc(F)c(O)c(F)c2)c1 [Example 198]
43 | 16 | Cc1nc(COc2ncccn2)sc1-c1csc(-c2cc(F)c3[nH]nnc3c2F)n1 [Example 66]
44 | 33 | COC(=O)NCc1nc(C)c(-c2cccc(-c3cc(F)c4nn[nH]c4c3F)n2)s1 [Example 122]
45 | 58 | Cc1nc(COCC(C)(C)O)sc1-c1cccc(-c2cc(F)c3nn[nH]c3c2)n1 [Example 219]
46 | 890 | Cc1nc(CNCC(=O)N(C)C)sc1-c1cccc(-c2cc(F)c3nn[nH]c3c2F)n1 [Example 53]
47 | 2600 | Cc1nc(COc2ncccn2)sc1-c1cccc(-c2ccc3oc(=O)[nH]c3c2)n1 [Example 212]
48 | 4500 | Cc1nc(COc2ncccn2)sc1-c1cccc(-c2ccn3c(O)nnc3c2)n1 [Example 149]

Row | IC50 [nM] | SMILES
49 | 4400 | Cc1nc(COc2ncccn2)sc1-c1cccc(-c2cc(F)c(O)c(F)c2C)n1 [Example 133]
50 | 340 | Cc1nc(C)c(-c2cccc(-c3cc(F)c4nn[nH]c4c3F)n2)s1 [Example 90]
51 | 280 | CC(=O)N(C)Cc1nc(C)c(-c2cccc(-c3cc(F)c4nn[nH]c4c3F)n2)s1 [Example 65]
52 | 3000 | Cc1nc(COc2ccccn2)sc1-c1csc(-c2cc(F)c(OP(=O)(O)O)c(F)c2F)n1 [Example 81]
53 | 21 | Cc1nc(COC(=O)N2CCC(O)C2)sc1-c1cccc(-c2cc(F)c3nn[nH]c3c2F)n1 (stereo not drawn) [Example 85]
54 | > 99000 | Cc1nc(COc2ncccn2)sc1-c1cccc(-c2cc(F)c3nnn(C)c3c2)n1 [Example 150]
55 | 48 | Cc1nc(CN/C(=N/C#N)N(C)C)sc1-c1cccc(-c2cc(F)c3nn[nH]c3c2F)n1 [Example 45]
56 | 260 | Cc1nc(CNCC(C)(C)C)sc1-c1cccc(-c2cc(F)c3nn[nH]c3c2F)n1 [Example 56]
57 | 43 | Cc1nc(COCC(=O)N(C)C)sc1-c1cccc(-c2cc(F)c3nn[nH]c3c2F)n1 [Example 64]
58 | 87 | Cc1nc(COc2ncccn2)sc1-c1cccc(-c2cc(F)c(O)c(C#N)c2F)n1 [Example 231]
59 | 21 | COC(C)(C)COCc1nc(C)c(-c2cccc(-c3cc(F)c4nn[nH]c4c3F)n2)s1 [Example 227]
60 | 290 | Cc1nc(COc2ncccn2)sc1-c1ccnc(-c2cc(F)c(O)c(F)c2F)c1 [Example 57]
61 | > 25000 | Cc1nc(-c2cccc(-c3sc(COc4ncccn4)nc3C)n2)nnc1O [Example 230]
62 | 170 | Cc1nc(COCCN(C)C)sc1-c1cccc(-c2cc(F)c3nn[nH]c3c2F)n1 [Example 221]
63 | 250 | Cc1nc(COc2ncccn2)sc1-c1csc(-c2cc(F)c(C#N)c(O)c2F)n1 [Example 33]
64 | > 25000 | COc1c(F)cc(-c2cccc(-c3sc(COc4ncccn4)nc3C)n2)c(F)c1C#N [Example 228]
65 | 290 | Cc1nc(COc2ncccn2)sc1-c1cccc(-c2cc(O)c(C#N)c(F)c2)n1 [Example 74]
66 | 3900 | Cc1nc(COc2ncccn2)sc1-c1cnn(-c2cc(F)c(O)c(F)c2F)c1 [Example 233]
